Source: patent publication US10710951B2, “Pharmaceutical composition containing verbenone derivative for treating or preventing neurodegenerative disease” (KOREA UNIVERSITY RESEARCH AND BUSINESS FOUNDATION, priority 2012, dated 2020)

Assays:
cortical neurons [1] = assay: Oxygen-glucose deprivation (OGD)/reoxygenation neuronal injury, LDH release; assay type: cell-based; details: rat cortical neurons, FIG. 1
Method: (§1) Cortical neurons (5×10^5 cells/ml) were isolated from fetal SD rats (16-17 days). Specifically, brain cortex was cut, and cells were isolated from the tissue by repeated trituration using a Pasteur pipette in buffer (Hanks' Balanced Salt Solution, HBSS). The cell suspension (1.8×10^3 cells/mm^2) was dispensed on a plate pretreated with poly-D-lysine ([…])/laminin ([…]). The cells were placed in 10% FBS-containing NBM medium, and incubated in a […]/5% CO2 atmosphere at 37° C. After 15-16 days of the incubation, the experiment was performed.
In order to induce hypoxic-ischemic symptoms in vitro, the incubated cells were placed in an anoxic chamber (partial oxygen pressure <2 mmHg). The cells were incubated glucose-free DMEM while being bubbled with an anaerobic gas mixture (95% N2 and 5% CO2) for 30 minutes to remove residual oxygen, and were incubated at 37° C. for 90 minutes for oxygen deprivation. After 90 minutes, the exposed solution was replaced with 25 mmol/L glucose-containing DMEM medium to stop the OGD reaction, and the cells were restored to normal oxygen conditions. Control cells not exposed to OGD were incubated in glucose (25 mmol/L)-containing DMEM medium provided with an aerobic gas mixture (95% air and 5% CO2). The cells were treated with each sample 30 minutes before, and during the entire period of OGD/re-oxygenation.
(§2) In order to measure cell injury or cell death, the amount of LDH released into the medium was measured using a cell viability measurement kit (Sigma-Aldrich, St. Louis, Mo.). Cell viability was expressed as the percentage of LDH relative to the total cellular LDH level measured in sister cultures lysed by freezing-thawing after the experiment.

cortical neurons [2] = assay: NMDA-induced excitotoxicity, LDH release; assay type: cell-based, SD rats; parameters: dose or concentration left out as unconfirmed; details: cultured cortical neuronal cells; sample 30 min before NMDA; lower than MK-801; FIG. 2
Method: as §1
After incubation on the plate for 15-18 days, the cortical neurons were exposed to NMDA ([…]) in a solution (Mg^2+-free Earle's balanced salt solution (EBSS); containing 1.8 mM CaCl2 and 10 mM glycine) for 10 minutes. After exposure, the cells were washed with MgSO4-containing EBSS solution, and incubated in 25 mmol/L glucose-containing DMEM medium in a 5% CO2 incubator at 37° C. 30 Minutes before treatment with NMDA, the cells were treated with each sample […].
as §2

[3] = Oxygen radical absorbance capacity (ORAC) assay; parameters: ORAC assay TE25 (trolox equivalents): dose or concentration left out as unconfirmed; details: for ORAC assay TE25 (trolox equivalents): net AUC sample / net AUC trolox
Method: An ORAC assay was performed as disclosed in the literature (Huang, D. et al., J. Agric. Food Chem., 53, 1841-56, 2005).
AAPH (60 mM) and fluorescein (50 nM) were prepared in buffer (75 mM phosphate buffer, pH7.4) without a sample or a sample or a standard (Trolox). Each of the samples and the standard was suspended in a solution of 7% RMCD (randomly methylated beta-cyclodextrin) in 50% acetone. RMCD was used to increase the solubility of oil-soluble samples. Each sample was sufficiently mixed with fluorescein solution (66 nM, 190 μl) by shaking for 5 seconds. After incubation at 37° C. for 10 minutes, AAPH (500 mM, 30 μl) was quickly added to each sample, and a decrease in the fluorescence was measured using a fluorescence microplate reader (Ex=485 nm, Em=530 nm; SpectraMax GeminiEM, Molecular Devices, Sunnyvale, Calif.) at 37° C. at 5-min intervals for 9 hours. To quantify the activity of scavenging peroxyl radicals, AUC (area-under-the-curve) was calculated according to the following equation 2, and net AUC was calculated according to the following equation 3, and the TE (trolox equivalents) of each sample was calculated according to the following equation 4 based on a standard curve of net AUC plotted according to an increase in trolox concentration. AUC=(0.5+f1/f0+f2/f0+f3/f0+ . . . +fn−2/f0+fn−1/f0+fn/f0)×5, Equation 2
wherein f0 is the first fluorescence at 0 min and time I. Net AUC=AUCsample−AUCblank. Equation 3 TE(trolox equivalents) of each sample=[netAUCsample […]]/[net AUCtrolox […]]. Equation 4
(§3) The antioxidant activities of the verbenone derivatives of the present invention were measured by the following two different chemical reactions: (1) a single electron transfer-based assay that is a […] [DPPH] assay that measures a decrease in DPPH acting as a free radical generator and a termination probe; and (2) a hydrogen atom transfer assay that is an oxygen radical absorbance capacity [[…]] assay that measures the competitive reaction kinetics of a peroxyl radical generator (AAPH; 2,2′-azobis-(2-methylpropionamide)-dihydrochloride) and each sample acting as an antioxidant for oxidizable fluorescent probe (fluorescein).

[4] = DPPH assay (ability to scavenge nitrogen radicals); parameters: DPPH assay % inhibition: concentration or dose not given beside the values
Method: The samples were mixed with DPPH (23.6 μg/ml, in ethanol), and incubated in dark at 37° C. for 30 minutes. The DPPH absorbance reduced by each sample was measured at 517 nm. Vitamin C (Sigma-Aldrich, St. Louis, Mo.) was used as a control, and the DPPH inhibition value (%) was calculated using the following equation: Scavenging activity (%)=[Absmax(Vit.C)−Abssample]/[Absmax(Vit.C)−Absmin(Vit.C)]×100. Equation 1
as §3

cortical neurons [5] = assay: Intracellular levels (DCF fluorescence) of reactive oxygen species after OGD/reoxygenation; assay type: cell-based, SD rats; details: FIG. 3
Method: In order to examine the direct radical scavenging activities of the samples, at 1 hour after reoxygenation, the cells were stained with the fluorescent probe H2DCF-DA (2,7-dihydroichlorofluorescein diacetate) that is widely used to measure intracellular oxidative stress. After 2 hours, the cells were washed in EBSS buffer (containing 25 mM glucose, 1.8 mM CaCal2, 1.2 mM MgSO4 and 2.5 mM probenecid (pH7.4)), and the fluorescence of DCF was measured with a fluorescence microplate reader (SpectraMax GeminiEM; Ex=485 nm, Em=530 nm) or a fluorescence microscope (DM IL HC Fluo, Leica, Wetzlar, Germany) equipped with a digital camera (DFC420C, Leica, Wetzlar Germany). The fluorescence intensity was compensated with autofluorescence (i.e., the fluorescence of cells not loaded with H2DCF-DA).

focal ischemia = details: rats and gerbils; literature; cited from earlier work

| SMILES | neuronal injury induced by OGD (LDH release) (cortical neurons [1]; OGD/reoxygenation, comparable to MK801) | cytotoxicity (cortical neurons [1]) | NMDA-induced neuronal injury (cortical neurons [2]) | ORAC assay Net AUC [3] | ORAC assay TE25 (trolox equivalents) [3] | DPPH scavenging activity (in words) ([4]; compared to vitamin C at the same concentration) | DPPH assay % inhibition ([4]; relative to vitamin C (Equation 1)) [%] | OGD-induced intracellular oxidative stress (DCF fluorescence) (cortical neurons [5]) | melting point [°C] | peroxyl radical scavenging activity in ORAC assay (in words) ([3]; compared to trolox) | time of administration after onset of focal ischemia giving a neuron protection effect (focal ischemia) [h] |
| --- | --- | --- | --- | --- | --- | --- | --- | --- | --- | --- | --- |
| CC1(C)[C@@H]2C[C@H]1C(C=Cc1ccc(O)c(O)c1)=CC2=O [Compound 3c, (1S,5R)-4-(3,4-dihydroxystyryl)-6,6-dimethylbicyclo[3.1.1]hept-3-en-2-one] | significantly reduced neuronal injury | showed no cytotoxicity | significantly reduced NMDA-induced neuronal injury | 131.29 ± 11.97 | 3.11 ± 0.11 | stronger scavenging activity compared to vitamin C | 91.62 ± 3.27 | reduced OGD-induced intracellular oxidative stress | – | – | – |
| CC1(C)[C@@H]2C[C@H]1C(C=Cc1ccc(-n3cccc3)cc1)=CC2=O [Compound 4e, (1S,5R)-4-(4-(1H-pyrrol-1-yl)styryl)-6,6-dimethylbicyclo[3.1.1]hept-3-en-2-one] | – | – | – | 98.31 ± 0.48 | 2.19 ± 0.01 | – | – | – | 146 to 148 | strong peroxyl radical scavenging activities compared to trolox | – |
| C[C@]12N[C@H](Cc3ccccc31)c1ccccc12 [MK-801] | – | – | – | – | – | – | – | – | – | – | ≤ 1 |
